Assays:
Test in all cases: Kinase panel
Format in all cases: biochemical
[1] = biological target: T1, Src(1-530)(h) (Homo sapiens, UniProt P12931); conditions: read-out: % Residual Activity
T1 construct: purchased Eurofins (KinaseProfiler)
How it was run: (§1)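 In this kinome-wide profiling of rilpivirine, IC50 values were obtained in radiometric format at the Km concentration of ATP for each kinase, then expressed as Ki using Cheng–Prusoff.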

[2] = biological target: T2, MRCKα(h) (Homo sapiens, UniProt Q5VT25); conditions: read-out: % Residual Activity
T2 construct: purchased Eurofins (KinaseProfiler)
How it was run: as §1

[3] = biological target: T3, MARK1(h) (Homo sapiens, UniProt Q9P0L2); conditions: read-out: % Residual Activity
T3 construct: purchased Eurofins (KinaseProfiler)
How it was run: as §1

[4] = biological target: T4, TAK1(h) (Homo sapiens, UniProt O43318); conditions: read-out: % Residual Activity
T4 construct: purchased Eurofins (KinaseProfiler)
How it was run: as §1

[5] = biological target: T5, MSSK1(h) (Homo sapiens, UniProt Q9UPE1); conditions: read-out: % Residual Activity
T5 construct: purchased Eurofins (KinaseProfiler)
How it was run: as §1

[6] = biological target: T6, MAP4K3(h) (Homo sapiens, UniProt Q8IVH8); conditions: read-out: % Residual Activity
T6 construct: purchased Eurofins (KinaseProfiler)
How it was run: as §1

[7] = biological target: T7, SGK(h) (Homo sapiens, UniProt O00141); conditions: read-out: % Residual Activity
T7 construct: purchased Eurofins (KinaseProfiler)
How it was run: as §1

[8] = biological target: T8, CDK7/cyclinH/MAT1(h) (Homo sapiens, UniProt P50613); conditions: read-out: % Residual Activity
T8 construct: purchased Eurofins (KinaseProfiler)
How it was run: as §1

[9] = biological target: T9, CDKL1(h) (Homo sapiens, UniProt Q00532); conditions: read-out: % Residual Activity
T9 construct: purchased Eurofins (KinaseProfiler)
How it was run: as §1

[10] = biological target: T10, cSRC(h) (Homo sapiens, UniProt P12931); conditions: read-out: % Residual Activity
T10 construct: purchased Eurofins (KinaseProfiler)
How it was run: as §1

[11] = biological target: T11, Hck(h) activated (Homo sapiens, UniProt P08631); conditions: read-out: % Residual Activity
T11 construct: purchased Eurofins (KinaseProfiler)
How it was run: as §1

[12] = biological target: T12, JNK1α1(h) (Homo sapiens, UniProt P45983); conditions: read-out: % Residual Activity
T12 construct: purchased Eurofins (KinaseProfiler)
How it was run: as §1

[13] = biological target: T13, MKK4(m) (Mus musculus, UniProt P47809); conditions: read-out: % Residual Activity
T13 construct: purchased Eurofins (KinaseProfiler)
How it was run: as §1

[14] = biological target: T14, Yes(h) (Homo sapiens, UniProt P07947)
T14 construct: purchased Eurofins (KinaseProfiler)
How it was run: as §1

[15] = biological target: PIP5K1a(h) (Homo sapiens, UniProt Q99755); conditions: read-out: % Residual Activity
How it was run: as §1

[16] = biological target: T15, IRR(h) (Homo sapiens, UniProt P14616); conditions: read-out: % Residual Activity
T15 construct: purchased Eurofins (KinaseProfiler)
How it was run: as §1

[17] = biological target: T16, PI3 Kinase (p110a/p85a)(m) (Mus musculus, UniProt P42337); conditions: read-out: % Residual Activity
T16 construct: purchased Eurofins (KinaseProfiler)
How it was run: as §1

[18] = biological target: T17, LRRK2(h) (Homo sapiens, UniProt Q5S007); conditions: read-out: % Residual Activity
T17 construct: purchased Eurofins (KinaseProfiler)
How it was run: as §1

[19] = biological target: T18, MAPK1(h) (Homo sapiens, UniProt P27361); conditions: read-out: % Residual Activity
T18 construct: purchased Eurofins (KinaseProfiler)
How it was run: as §1

[20] = biological target: T19, NEK1(h) (Homo sapiens, UniProt Q96PY6); conditions: read-out: % Residual Activity
T19 construct: purchased Eurofins (KinaseProfiler)
How it was run: as §1

[21] = biological target: T20, Blk(h) (Homo sapiens, UniProt P51451); conditions: read-out: % Residual Activity
T20 construct: purchased Eurofins (KinaseProfiler)
How it was run: as §1

[22] = biological target: T21, NLK(h) (Homo sapiens, UniProt Q9UBE8); conditions: read-out: % Residual Activity
T21 construct: purchased Eurofins (KinaseProfiler)
How it was run: as §1

[23] = biological target: T22, CDK5/p35(h) (Homo sapiens, UniProt Q00535); conditions: read-out: % Residual Activity
T22 construct: purchased Eurofins (KinaseProfiler)
How it was run: as §1

[24] = biological target: T23, MYLK2(h) (Homo sapiens, UniProt Q9H1R3); conditions: read-out: % Residual Activity
T23 construct: purchased Eurofins (KinaseProfiler)
How it was run: as §1

[25] = biological target: T24, MLK3(h) (Homo sapiens, UniProt Q16584); conditions: read-out: % Residual Activity
T24 construct: purchased Eurofins (KinaseProfiler)
How it was run: as §1

[26] = biological target: T25, Snk(h) (Homo sapiens, UniProt Q9NYY3); conditions: read-out: % Residual Activity
T25 construct: purchased Eurofins (KinaseProfiler)
How it was run: as §1

[27] = biological target: T26, Pim-1(h) (Homo sapiens, UniProt P11309)
T26 construct: purchased Eurofins (KinaseProfiler)
How it was run: as §1

[28] = biological target: T27, Met(h) (Homo sapiens, UniProt P08581); conditions: read-out: % Residual Activity
T27 construct: purchased Eurofins (KinaseProfiler)
How it was run: as §1

[29] = biological target: T28, SRPK1(h) (Homo sapiens, UniProt Q96SB4); conditions: read-out: % Residual Activity
T28 construct: purchased Eurofins (KinaseProfiler)
How it was run: as §1

[30] = biological target: T29, EphA3(h) (Homo sapiens, UniProt P29320); conditions: read-out: % Residual Activity
T29 construct: purchased Eurofins (KinaseProfiler)
How it was run: as §1

[31] = biological target: T30, TAO1(h) (Homo sapiens, UniProt Q7L7X3); conditions: read-out: % Residual Activity
T30 construct: purchased Eurofins (KinaseProfiler)
How it was run: as §1

[32] = biological target: T31, Rsk3(h) (Homo sapiens, UniProt Q15349); conditions: read-out: % Residual Activity
T31 construct: purchased Eurofins (KinaseProfiler)
How it was run: as §1

[33] = biological target: T32, MAPK2(h) (Homo sapiens, UniProt P28482); conditions: read-out: % Residual Activity
T32 construct: purchased Eurofins (KinaseProfiler)
How it was run: as §1

[34] = biological target: T33, NEK6(h) (Homo sapiens, UniProt Q9HC98); conditions: read-out: % Residual Activity
T33 construct: purchased Eurofins (KinaseProfiler)
How it was run: as §1

[35] = biological target: T34, CaMKIIδ(h) (Homo sapiens, UniProt Q13557); conditions: read-out: % Residual Activity
T34 construct: purchased Eurofins (KinaseProfiler)
How it was run: as §1

[36] = biological target: T35, Fes(h) (Homo sapiens, UniProt P07332); conditions: read-out: % Residual Activity
T35 construct: purchased Eurofins (KinaseProfiler)
How it was run: as §1

[37] = biological target: T36, Flt3(h) (Homo sapiens, UniProt P36888); conditions: read-out: % Residual Activity
T36 construct: purchased Eurofins (KinaseProfiler)
How it was run: as §1

[38] = biological target: T37, PKCβII(h) (Homo sapiens, UniProt P05771); conditions: read-out: % Residual Activity
T37 construct: purchased Eurofins (KinaseProfiler)
How it was run: as §1

T14 sequence (P07947 whole entry): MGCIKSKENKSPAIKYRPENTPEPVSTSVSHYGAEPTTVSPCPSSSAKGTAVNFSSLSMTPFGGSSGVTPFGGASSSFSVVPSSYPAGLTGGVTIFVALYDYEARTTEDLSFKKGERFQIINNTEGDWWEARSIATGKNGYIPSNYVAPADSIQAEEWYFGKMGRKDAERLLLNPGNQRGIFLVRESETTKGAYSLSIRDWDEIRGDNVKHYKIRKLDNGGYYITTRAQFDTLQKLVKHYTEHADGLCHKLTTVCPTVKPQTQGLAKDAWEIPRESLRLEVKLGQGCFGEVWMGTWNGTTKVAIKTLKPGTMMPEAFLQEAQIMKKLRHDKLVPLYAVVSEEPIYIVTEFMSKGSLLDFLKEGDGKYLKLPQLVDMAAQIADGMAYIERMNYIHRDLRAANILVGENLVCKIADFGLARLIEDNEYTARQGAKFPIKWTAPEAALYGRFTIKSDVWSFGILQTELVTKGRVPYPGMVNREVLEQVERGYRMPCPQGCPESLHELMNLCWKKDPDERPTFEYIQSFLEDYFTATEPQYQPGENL
T26 sequence (P11309 whole entry): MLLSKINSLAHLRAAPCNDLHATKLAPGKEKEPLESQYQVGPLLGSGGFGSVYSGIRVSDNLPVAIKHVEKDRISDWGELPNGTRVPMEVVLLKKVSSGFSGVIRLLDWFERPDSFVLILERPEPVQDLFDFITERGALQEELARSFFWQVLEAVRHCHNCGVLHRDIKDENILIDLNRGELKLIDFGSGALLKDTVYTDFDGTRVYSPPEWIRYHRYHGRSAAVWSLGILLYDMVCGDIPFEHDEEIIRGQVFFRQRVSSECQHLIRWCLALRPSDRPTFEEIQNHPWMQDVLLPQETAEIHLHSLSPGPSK
T13 sequence (P47809 2-397 limits assumed): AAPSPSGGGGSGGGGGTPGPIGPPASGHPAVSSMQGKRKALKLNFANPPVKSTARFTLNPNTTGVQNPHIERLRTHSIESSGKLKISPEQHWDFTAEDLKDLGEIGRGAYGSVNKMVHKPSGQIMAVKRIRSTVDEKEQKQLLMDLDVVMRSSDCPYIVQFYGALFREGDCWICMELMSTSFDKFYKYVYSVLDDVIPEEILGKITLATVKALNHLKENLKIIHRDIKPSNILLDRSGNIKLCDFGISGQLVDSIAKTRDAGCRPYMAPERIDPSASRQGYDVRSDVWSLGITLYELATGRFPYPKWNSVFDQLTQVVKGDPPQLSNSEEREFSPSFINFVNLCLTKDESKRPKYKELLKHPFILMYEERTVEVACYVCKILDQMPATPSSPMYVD
T4 sequence (O43318 1-303 limits assumed): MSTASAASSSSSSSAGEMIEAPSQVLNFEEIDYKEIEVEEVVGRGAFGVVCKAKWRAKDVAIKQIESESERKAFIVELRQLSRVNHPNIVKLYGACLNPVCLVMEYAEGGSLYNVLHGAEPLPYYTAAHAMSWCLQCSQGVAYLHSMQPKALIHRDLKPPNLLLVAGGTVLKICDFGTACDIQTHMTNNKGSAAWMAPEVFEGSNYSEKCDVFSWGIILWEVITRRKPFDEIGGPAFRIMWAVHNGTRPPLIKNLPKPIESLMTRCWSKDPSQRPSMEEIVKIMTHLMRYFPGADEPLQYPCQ
T11 sequence (P08631 whole entry): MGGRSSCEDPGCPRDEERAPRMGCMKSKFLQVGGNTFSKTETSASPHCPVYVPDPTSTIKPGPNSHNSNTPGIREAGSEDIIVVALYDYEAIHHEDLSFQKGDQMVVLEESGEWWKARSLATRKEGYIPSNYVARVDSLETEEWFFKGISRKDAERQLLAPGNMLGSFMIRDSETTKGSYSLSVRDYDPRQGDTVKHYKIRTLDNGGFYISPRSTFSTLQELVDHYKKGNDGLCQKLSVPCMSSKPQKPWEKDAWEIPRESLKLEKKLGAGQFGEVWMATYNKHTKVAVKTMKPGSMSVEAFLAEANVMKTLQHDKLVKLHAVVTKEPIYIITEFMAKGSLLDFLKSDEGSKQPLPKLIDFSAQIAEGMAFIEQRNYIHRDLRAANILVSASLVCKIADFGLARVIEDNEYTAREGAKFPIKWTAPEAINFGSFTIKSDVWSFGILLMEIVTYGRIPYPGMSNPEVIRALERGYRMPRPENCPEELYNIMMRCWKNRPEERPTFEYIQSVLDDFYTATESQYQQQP
T31 sequence (Q15349 whole entry): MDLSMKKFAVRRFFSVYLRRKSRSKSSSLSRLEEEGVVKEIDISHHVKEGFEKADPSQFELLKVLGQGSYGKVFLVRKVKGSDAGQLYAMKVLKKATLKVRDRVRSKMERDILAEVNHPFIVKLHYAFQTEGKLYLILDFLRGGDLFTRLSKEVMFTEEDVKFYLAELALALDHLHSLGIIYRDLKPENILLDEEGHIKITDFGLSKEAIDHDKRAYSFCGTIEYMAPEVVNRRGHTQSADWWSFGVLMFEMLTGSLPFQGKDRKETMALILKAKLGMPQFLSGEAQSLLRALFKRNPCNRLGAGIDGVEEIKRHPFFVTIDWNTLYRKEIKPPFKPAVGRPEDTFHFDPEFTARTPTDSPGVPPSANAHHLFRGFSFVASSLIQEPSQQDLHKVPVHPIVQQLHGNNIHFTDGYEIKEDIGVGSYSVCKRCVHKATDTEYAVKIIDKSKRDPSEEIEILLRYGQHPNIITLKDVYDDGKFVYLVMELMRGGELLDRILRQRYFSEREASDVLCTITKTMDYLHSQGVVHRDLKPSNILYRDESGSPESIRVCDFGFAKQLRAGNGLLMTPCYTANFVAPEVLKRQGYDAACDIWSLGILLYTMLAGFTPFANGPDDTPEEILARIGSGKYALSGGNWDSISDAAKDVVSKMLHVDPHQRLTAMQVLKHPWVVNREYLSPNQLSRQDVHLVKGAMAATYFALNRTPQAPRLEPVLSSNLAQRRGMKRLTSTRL
T32 sequence (P28482 whole entry): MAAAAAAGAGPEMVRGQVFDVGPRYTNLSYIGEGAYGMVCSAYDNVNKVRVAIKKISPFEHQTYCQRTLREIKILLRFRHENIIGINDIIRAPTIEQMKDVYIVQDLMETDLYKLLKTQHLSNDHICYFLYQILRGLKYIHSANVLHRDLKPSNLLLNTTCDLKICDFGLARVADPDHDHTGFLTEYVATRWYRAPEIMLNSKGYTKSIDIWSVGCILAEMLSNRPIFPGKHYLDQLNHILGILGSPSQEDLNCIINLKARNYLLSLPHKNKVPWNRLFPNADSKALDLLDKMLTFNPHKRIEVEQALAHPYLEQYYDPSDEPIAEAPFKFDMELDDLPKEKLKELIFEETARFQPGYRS
T24 sequence (Q16584 whole entry): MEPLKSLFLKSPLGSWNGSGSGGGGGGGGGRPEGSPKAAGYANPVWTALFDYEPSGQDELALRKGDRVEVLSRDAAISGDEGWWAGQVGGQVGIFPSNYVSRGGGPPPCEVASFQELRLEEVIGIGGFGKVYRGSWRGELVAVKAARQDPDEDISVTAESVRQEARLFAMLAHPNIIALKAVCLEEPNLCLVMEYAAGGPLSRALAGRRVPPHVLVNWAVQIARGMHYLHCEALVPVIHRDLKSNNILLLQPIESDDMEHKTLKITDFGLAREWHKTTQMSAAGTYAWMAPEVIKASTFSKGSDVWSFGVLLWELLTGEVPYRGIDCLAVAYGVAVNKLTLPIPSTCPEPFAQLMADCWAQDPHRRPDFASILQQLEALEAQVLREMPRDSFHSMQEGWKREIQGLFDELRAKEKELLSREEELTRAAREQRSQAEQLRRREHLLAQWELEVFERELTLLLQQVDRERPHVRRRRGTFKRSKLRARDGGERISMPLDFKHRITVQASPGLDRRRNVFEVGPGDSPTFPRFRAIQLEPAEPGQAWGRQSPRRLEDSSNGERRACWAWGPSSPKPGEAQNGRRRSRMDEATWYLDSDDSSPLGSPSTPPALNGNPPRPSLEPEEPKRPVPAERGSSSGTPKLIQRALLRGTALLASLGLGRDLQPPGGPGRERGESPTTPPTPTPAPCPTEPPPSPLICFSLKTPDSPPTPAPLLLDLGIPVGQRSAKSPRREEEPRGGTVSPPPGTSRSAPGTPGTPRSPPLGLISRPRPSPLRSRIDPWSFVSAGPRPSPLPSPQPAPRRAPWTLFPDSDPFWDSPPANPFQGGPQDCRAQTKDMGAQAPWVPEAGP
T28 sequence (Q96SB4 whole entry): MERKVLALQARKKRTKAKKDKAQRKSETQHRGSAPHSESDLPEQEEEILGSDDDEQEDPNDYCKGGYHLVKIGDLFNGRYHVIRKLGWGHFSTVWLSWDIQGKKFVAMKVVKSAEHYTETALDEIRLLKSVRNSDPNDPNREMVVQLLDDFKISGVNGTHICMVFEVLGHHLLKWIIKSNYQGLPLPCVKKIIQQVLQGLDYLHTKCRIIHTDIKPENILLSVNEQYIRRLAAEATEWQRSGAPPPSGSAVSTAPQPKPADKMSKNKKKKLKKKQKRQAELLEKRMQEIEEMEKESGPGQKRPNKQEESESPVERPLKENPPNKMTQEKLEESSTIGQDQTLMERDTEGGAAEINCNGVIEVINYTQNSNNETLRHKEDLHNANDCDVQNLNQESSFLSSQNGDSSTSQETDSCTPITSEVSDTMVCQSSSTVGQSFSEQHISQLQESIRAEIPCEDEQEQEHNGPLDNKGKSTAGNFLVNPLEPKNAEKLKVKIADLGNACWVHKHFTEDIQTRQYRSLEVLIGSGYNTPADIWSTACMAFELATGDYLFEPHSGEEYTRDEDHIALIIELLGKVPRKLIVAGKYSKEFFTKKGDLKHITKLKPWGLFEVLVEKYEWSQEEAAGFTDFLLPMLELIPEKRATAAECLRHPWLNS
T33 sequence (Q9HC98 whole entry): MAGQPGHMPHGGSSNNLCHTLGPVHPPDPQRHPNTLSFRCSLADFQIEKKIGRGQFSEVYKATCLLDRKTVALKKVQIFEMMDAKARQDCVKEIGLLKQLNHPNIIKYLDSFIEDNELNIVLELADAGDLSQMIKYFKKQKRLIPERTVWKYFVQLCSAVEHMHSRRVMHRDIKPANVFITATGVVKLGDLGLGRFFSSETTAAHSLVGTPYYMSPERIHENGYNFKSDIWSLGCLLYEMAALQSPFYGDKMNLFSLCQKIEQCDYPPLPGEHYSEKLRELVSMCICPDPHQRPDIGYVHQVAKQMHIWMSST

Cc1cc(/C=C/C#N)cc(C)c1Nc1ccnc(Nc2ccc(C#N)cc2)n1 [rilpivirine, (E)-4-((4-((4-(2-cyanoethenyl)-2,6-dimethylphenyl)amino)pyrimidin-2-yl)amino)benzonitrile]
remaining activity at 1 µM [1]: 31% | remaining activity at 1 µM [2]: 86% | remaining activity at 1 µM [3]: 82% | remaining activity at 1 µM [4]: 105% | remaining activity at 1 µM [5]: 84% | remaining activity at 1 µM [6]: 91% | remaining activity at 1 µM [7]: 97% | remaining activity at 1 µM [8]: 78% | remaining activity at 1 µM [9]: 75% | remaining activity at 1 µM [10]: 53% | remaining activity at 1 µM [11]: 63% | remaining activity at 1 µM [12]: 90% | remaining activity at 1 µM [13]: 84% | inhibition at 1 µM ([14]; YES, read-out: inhibitory activity): > 70% | remaining activity at 1 µM ([14]; read-out: % Residual Activity): 17% | remaining activity at 1 µM [15]: 96% | remaining activity at 1 µM [16]: 95% | remaining activity at 1 µM [17]: 100% | remaining activity at 1 µM [18]: 93% | remaining activity at 1 µM [19]: 90% | remaining activity at 1 µM [20]: 86% | remaining activity at 1 µM [21]: 73% | remaining activity at 1 µM [22]: 64% | remaining activity at 1 µM [23]: 97% | remaining activity at 1 µM [24]: 79% | remaining activity at 1 µM [25]: 81% | remaining activity at 1 µM [26]: 98% | remaining activity at 1 µM ([27]; 1 μM, read-out: % Residual Activity): 22% | inhibition at 1 µM ([27]; PIM1, 1 μM, read-out: inhibitory activity): > 70% | remaining activity at 1 µM [28]: 80% | remaining activity at 1 µM [29]: 84% | remaining activity at 1 µM [30]: 86% | remaining activity at 1 µM [31]: 41% | remaining activity at 1 µM [32]: 86% | remaining activity at 1 µM [33]: 101% | remaining activity at 1 µM [34]: 94% | remaining activity at 1 µM [35]: 47% | remaining activity at 1 µM [36]: 85% | remaining activity at 1 µM [37]: 123% | remaining activity at 1 µM [38]: 94%

Reference: publication PMC9954146, “Anti-Leukaemic Activity of Rilpivirine Is Mediated by Aurora A Kinase Inhibition” (Cancers, 2023)
